Counter-ions that a name gives are not always drawn.
How the values were obtained:
[1] = target: T1, human glioblastoma A172 cells, naturally expressing hTDO2 (Homo sapiens, UniProt P48775); assay: Cellular assay for TDO2 activity, A172 cells; format: cell-based; settings: overnight incubation, kynurenine in supernatant
T1 construct: human glioblastoma A172 cells, naturally expressing hTDO2; endogenous in cells; host or cells: human glioblastoma A172 cells (ATCC CRL-1620)
Protocol: The compounds of formula I inhibit the activity of human TDO2 in cells that constitutively express TDO2, such as A172 cells. A172 is a cell line derived from human brain glioblastoma cells. The cells are available from the American Type Culture Collection (ATCC®) as CRL-1620™
The assay (adapted from Pilotte L et al., Proc Natl Acad Sci USA, 2012, 109(7), 2497-502) was performed in 96-well flat bottom plates seeded with human glioblastoma A172 cells, naturally expressing hTDO2 (prepared as described in Tilman et al., Mol Cancer, 2007, 17(6), 80), at a concentration of 1.25×10^4 cells/well in a final volume of 200 μL. To determine TDO, the cells were incubated overnight at 37° C. at 5% CO2 in IMDM (Invitrogen) supplemented with 2% FBS and 2% penicillin/streptomycin in the presence of the compounds of the present invention, at different concentrations.
The plates were then centrifuged 5 min at 1000 rpm, and 100 μL of the supernatant were collected in a conical plate, 30 uL of TCA 30% were added and a further centrifugated at 3000×g for 10 minutes. 100 μL of the supernatant were collected in a flat bottomed plate and 100 μL of 2% (w/v) 4-(dimethylamino)-benzaldehyde in acetic acid and incubated for 5 min at room temperature. Kynurenine concentrations were determined by measuring the absorbance at 480 nm. A standard curve was made with pure kynurenine. The TDO activity was measured as described above using ten serial concentrations of the compounds of the present invention. Data were fitted using the Prism™ software (GraphPad Software, Inc.) using standard parameters.

[2] = target: T2, human recombinant TDO2 enzyme (Homo sapiens, UniProt P48775); assay: Assay for TDO2 enzymatic activity determination; format: biochemical; settings: human recombinant TDO2, L-Trp 1 mM, kynurenine absorbance at 480 nm
T2 construct: made in house
T2 sequence (P48775 whole entry): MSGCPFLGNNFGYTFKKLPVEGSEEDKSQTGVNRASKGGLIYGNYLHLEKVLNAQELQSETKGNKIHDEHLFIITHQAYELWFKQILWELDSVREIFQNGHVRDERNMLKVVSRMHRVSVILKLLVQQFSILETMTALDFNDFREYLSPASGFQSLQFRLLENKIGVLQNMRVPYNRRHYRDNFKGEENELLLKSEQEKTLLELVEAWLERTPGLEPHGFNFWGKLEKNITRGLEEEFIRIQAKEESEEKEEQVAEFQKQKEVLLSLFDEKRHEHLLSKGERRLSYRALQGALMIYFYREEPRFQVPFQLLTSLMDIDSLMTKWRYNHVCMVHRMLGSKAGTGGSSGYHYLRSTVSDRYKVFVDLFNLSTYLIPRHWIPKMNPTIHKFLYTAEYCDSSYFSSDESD
Protocol: To measure the TDO2 activity, the procedure described in Dolusic et al. J. Med. Chem.; 2011, 54, […] was adapted: the reaction mixture contained (final concentrations) potassium phosphate buffer (50 mM, pH 7.5), ascorbic acid (0.25 M), methylene blue (0.125 μM), catalase (40 units/mL, from bovine liver, Sigma), and human recombinant TDO2 enzyme (prepared as described in Dolusic et al. J. Med. Chem.; 2011, 54, 5320-5334; 0.9 μg) without or with the compounds of the present invention at the indicated concentrations (total volume 112.5 μL). The reaction was initiated by the addition of 37.5 μL of L-Trp (final concentration 1 mM) at room temperature. The reaction was conducted at room temperature during one hour and stopped by the addition of 30 μL of 30% (w/v) trichloroacetic acid.
To convert N-formylkynurenine into kynurenine, the reaction mixture was incubated at 65° C. for 30 min. Then 150 μL of the reaction mixture was mixed with 120 μL of 2.5% (w/v) 4-(dimethylamino)-benzaldehyde in acetic acid and incubated for 5 min at room temperature. Kynurenine concentrations were determined by measuring the absorbance at 480 nm. A standard curve was made with pure kynurenine. The TDO activity was measured as described above using ten serial concentrations of the compounds of the present invention. Data were fitted using the Prism™ software (GraphPad Software, Inc.) using standard parameters.

T1 sequence (P48775 whole entry): as above

| IC50 [1] [nM] | IC50 [2] [nM] | Compound |
| --- | --- | --- |
| 498 | 1360 | O=S(=O)(CCN1CCNCC1)NCc1nc2ccc(-c3c[nH]c4cc(F)ccc34)cc2o1 [Compound 123, N-((6-(6-fluoro-1H-indol-3-yl)benzo[d]oxazol-2-yl)methyl)-2-(piperazin-1-yl)ethanesulfonamide] |
| 344 | 2090 | CN1CCN(CCS(=O)(=O)NCc2nc3ccc(-c4c[nH]c5cc(F)ccc45)cc3o2)CC1 [Compound 122, N-((6-(6-fluoro-1H-indol-3-yl)benzo[d]oxazol-2-yl)methyl)-2-(4-methylpiperazin-1-yl)ethanesulfonamide] |
|  | 2220 | CC(=O)N1CCC(n2ncc3cc(-c4c[nH]c5cc(F)ccc45)ccc32)CC1 [Compound 14, 1-(4-(5-(6-fluoro-1H-indol-3-yl)-1H-indazol-1-yl)piperidin-1-yl)ethanone] |
|  | 1170 | NC(=O)CCn1ncc2ccc(-c3c[nH]c4cc(F)ccc34)cc21 [Compound 5, 3-(6-(6-fluoro-1H-indol-3-yl)-1H-indazol-1-yl)propanamide] |
| 169 | 421 | NC(=O)Cn1cc2cc(-c3c[nH]c4cc(F)ccc34)ccc2n1 [Compound 20, 2-(5-(6-fluoro-1H-indol-3-yl)-2H-indazol-2-yl)acetamide] |
|  | 609 | Fc1ccc2c(-c3ccc4[nH]ncc4c3)c[nH]c2c1 [Compound 8, 5-(6-fluoro-1H-indol-3-yl)-1H-indazole] |
| 540 | 6070 | CS(=O)(=O)NCc1nc2ccc(-c3c[nH]c4ccc(F)cc34)cc2o1 [Compound 128, N-((6-(5-fluoro-1H-indol-3-yl)benzo[d]oxazol-2-yl)methyl)methanesulfonamide] |
|  | 1330 | NC(=O)CCc1nc2cc(-c3c[nH]c4cc(F)ccc34)ccc2[nH]1 [Compound 46, 3-(5-(6-fluoro-1H-indol-3-yl)-1H-benzo[d]imidazol-2-yl)propanamide] |
|  | 946 | NC(=O)Cn1ncc2ccc(-c3c[nH]c4cc(F)ccc34)cc21 [Compound 2, 2-(6-(6-fluoro-1H-indol-3-yl)-1H-indazol-1-yl)acetamide] |
|  | 924 | CC(=O)N1CCC(n2cc3cc(-c4c[nH]c5cc(F)ccc45)ccc3n2)CC1 [Compound 24, 1-(4-(5-(6-fluoro-1H-indol-3-yl)-2H-indazol-2-yl)piperidin-1-yl)ethanone] |
| 326 | 814 | O=S(=O)(CCO)NCc1nc2ccc(-c3c[nH]c4cc(F)ccc34)cc2o1 [Compound 106, N-((6-(6-fluoro-1H-indol-3-yl)benzo[d]oxazol-2-yl)methyl)-2-hydroxyethanesulfonamide] |
|  | 7530 | Fc1ccc2c(-c3ccc4cnn(C5CCNCC5)c4c3)c[nH]c2c1 [Compound 6, 6-(6-fluoro-1H-indol-3-yl)-1-(piperidin-4-yl)-1H-indazole] |
| 517 | 709 | NC(=O)CCn1ncc2cc(-c3c[nH]c4cc(F)ccc34)ccc21 [Compound 12, 3-(5-(6-fluoro-1H-indol-3-yl)-1H-indazol-1-yl)propanamide] |
|  | 2670 | CC(=O)N1CCC(Cn2cc3cc(-c4c[nH]c5cc(F)ccc45)ccc3n2)CC1 [Compound 21, 1-(4-((5-(6-fluoro-1H-indol-3-yl)-2H-indazol-2-yl)methyl)piperidin-1-yl)ethanone] |
| 223 | 913 | CN1CCN(CCc2nc3ccc(-c4c[nH]c5cc(F)ccc45)cc3o2)CC1 [Compound 105, 6-(6-fluoro-1H-indol-3-yl)-2-(2-(4-methylpiperazin-1-yl)ethyl)benzo[d]oxazole] |
|  | 407 | Fc1ccc2c(-c3ccc4c(cnn4C4CCNCC4)c3)c[nH]c2c1 [Compound 13, 5-(6-fluoro-1H-indol-3-yl)-1-(piperidin-4-yl)-1H-indazole] |

| IC50 [1] [nM] | IC50 [2] [nM] | Compound |
| --- | --- | --- |
|  | 188 | Fc1ccc2c(-c3ccc4[nH]cnc4c3)c[nH]c2c1 [Compound 25, 5-(6-fluoro-1H-indol-3-yl)-1H-benzo[d]imidazole] |
|  | 2190 | CC(=O)N1CCC(n2cc3ccc(-c4c[nH]c5cc(F)ccc45)cc3n2)CC1 [Compound 19, 1-(4-(6-(6-fluoro-1H-indol-3-yl)-2H-indazol-2-yl)piperidin-1-yl)ethanone] |
|  | 322 | Fc1ccc2c(-c3ccc4nn(C5CCNCC5)cc4c3)c[nH]c2c1 [Compound 23, 5-(6-fluoro-1H-indol-3-yl)-2-(piperidin-4-yl)-2H-indazole] |
|  | 427 | Fc1ccc2c(-c3ccc4c(cnn4CC4CCNCC4)c3)c[nH]c2c1 [Compound 10, 5-(6-fluoro-1H-indol-3-yl)-1-(piperidin-4-ylmethyl)-1H-indazole] |
| 261 | 835 | NC(=O)NCc1nc2ccc(-c3c[nH]c4cc(F)ccc34)cc2o1 [Compound 102, 1-((6-(6-fluoro-1H-indol-3-yl)benzo[d]oxazol-2-yl)methyl)urea] |
| 589 | 2390 | CS(=O)(=O)N1CCC(c2nc3ccc(-c4c[nH]c5cc(F)ccc45)cc3o2)CC1 [Compound 96, 6-(6-fluoro-1H-indol-3-yl)-2-(1-(methylsulfonyl)piperidin-4-yl)benzo[d]oxazole] |
|  | 13800 | CC(=O)N1CCC(n2ncc3ccc(-c4c[nH]c5cc(F)ccc45)cc32)CC1 [Compound 7, 1-(4-(6-(6-fluoro-1H-indol-3-yl)-1H-indazol-1-yl)piperidin-1-yl)ethanone] |
|  | 680 | CC(=O)N1CCC(Cn2ncc3cc(-c4c[nH]c5cc(F)ccc45)ccc32)CC1 [Compound 11, 1-(4-((5-(6-fluoro-1H-indol-3-yl)-1H-indazol-1-yl)methyl)piperidin-1-yl)ethanone] |
|  | 1990 | CC(=O)N1CCC(Cn2cc3ccc(-c4c[nH]c5cc(F)ccc45)cc3n2)CC1 [Compound 16, 1-(4-((6-(6-fluoro-1H-indol-3-yl)-2H-indazol-2-yl)methyl)piperidin-1-yl)ethanone] |
|  | 2120 | Fc1ccc2c(-c3ccc4cnn(CC5CCNCC5)c4c3)c[nH]c2c1 [Compound 3, 6-(6-fluoro-1H-indol-3-yl)-1-(piperidin-4-ylmethyl)-1H-indazole hydrochloride] |
|  | 3180 | CC(=O)N1CCC(Cn2ncc3ccc(-c4c[nH]c5cc(F)ccc45)cc32)CC1 [Compound 4, 1-(4-((6-(6-fluoro-1H-indol-3-yl)-1H-indazol-1-yl)methyl)piperidin-1-yl)ethanone] |
|  | 935 | NC(=O)CCn1cc2ccc(-c3c[nH]c4cc(F)ccc34)cc2n1 [Compound 17, 3-(6-(6-fluoro-1H-indol-3-yl)-2H-indazol-2-yl)propanamide] |
|  | 948 | Fc1ccc2c(-c3ccc4cn(C5CCNCC5)nc4c3)c[nH]c2c1 [Compound 18, 6-(6-fluoro-1H-indol-3-yl)-2-(piperidin-4-yl)-2H-indazole] |
| 478 |  | CS(=O)(=O)NCc1nc2ccc(-c3c[nH]c4ccccc34)cc2o1 [Compound 114, N-((6-(1H-indol-3-yl)benzo[d]oxazol-2-yl)methyl)methanesulfonamide] |
| 459 |  | Fc1ccc2c(-c3ccc4oc(CN5CCNCC5)nc4c3)c[nH]c2c1 [Compound 61, 5-(6-fluoro-1H-indol-3-yl)-2-(piperazin-1-ylmethyl)benzo[d]oxazole] |
|  | 1160 | NC(=O)Cn1cc2ccc(-c3c[nH]c4cc(F)ccc34)cc2n1 [Compound 15, 2-(6-(6-fluoro-1H-indol-3-yl)-2H-indazol-2-yl)acetamide] |
